GI50 and TGI data for four compounds are collected here from PubChem BioAssay (NCI).

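Cells were grown in 96-well plates and exposed to each compound for 48 hours at five concentrations; endpoints were interpolated linearly between bracketing concentrations, or set to the highest concentration if not reached. Abbreviation: GI50, concentration required for 50% inhibition of growth. TGI: concentration producing complete growth inhibition.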 A value given as a limit tells only on which side of the number the result lay.

Some test systems named below: U251 CNS; SNB-19 CNS; SK-MEL-5 melanoma; DU-145 prostate; IGROV1 ovarian; A498 renal; RXF 393 renal; SN12C renal; HT29 colon; SK-MEL-2 melanoma.
What all share (assay): NCI tumour cell line growth inhibition, 48 h

With `COc1ccc(C(=O)COc2cccc(/C=C3\COc4ccc5ccccc5c4C3=O)c2)cc1`, the GI50 with U251 CNS was 5.61 µM; in the experiment with SNB-19 CNS, 9.37 µM; in the experiment on SK-MEL-5 melanoma, 5.58 µM; with DU-145 prostate it was 4.25 µM; with IGROV1 ovarian, 17.4 µM; with A498 renal it was 12.2 µM. Besides, the GI50 in the experiment on RXF 393 renal is 9.8 µM; in the experiment with SN12C renal it was 4.46 µM; in the experiment with HT29 colon, 6.08 µM; with SK-MEL-2 melanoma, 5.83 µM. Further, the TGI in the experiment on U251 CNS was above 100 µM; in the experiment on SNB-19 CNS it was above 100 µM; in the experiment on SK-MEL-5 melanoma, above 100 µM; in the experiment with DU-145 prostate, above 100 µM; in the experiment on IGROV1 ovarian, above 100 µM; in the experiment with A498 renal, 87 µM. The TGI in the experiment on RXF 393 renal, in the experiment with SN12C renal, in the experiment on HT29 colon and in the experiment with SK-MEL-2 melanoma was above 100 µM throughout.

With `O=C(CCl)Nc1ccc(Cl)cc1`, the GI50 with U251 CNS was 2.22 µM; in the experiment on SNB-19 CNS, 10.3 µM; with SK-MEL-5 melanoma, 1.71 µM; in the experiment on DU-145 prostate it was 4.92 µM; in the experiment with IGROV1 ovarian, 2.11 µM; in the experiment with A498 renal, 10.4 µM. For the same compound, the GI50 was 2.14 µM with RXF 393 renal, 3.4 µM in the experiment with SN12C renal, 2.03 µM with HT29 colon and 2.51 µM with SK-MEL-2 melanoma. Also, the TGI stood at 5.26 µM in the experiment with U251 CNS; 25.6 µM in the experiment with SNB-19 CNS; 3.16 µM in the experiment on SK-MEL-5 melanoma; 17.4 µM in the experiment on DU-145 prostate; 5.04 µM in the experiment with IGROV1 ovarian; 22.4 µM in the experiment with A498 renal. In addition, the TGI with RXF 393 renal amounted to 4.43 µM; in the experiment with SN12C renal, 22.9 µM; with HT29 colon it was 4.26 µM; in the experiment on SK-MEL-2 melanoma, 6.16 µM.

For `C[N+](C)(C)CC1CCCC(C[N+](C)(C)C)C1=O` (stereo not given), the TGI came out at 10.3 µM in the experiment with U251 CNS; 38 µM in the experiment on SNB-19 CNS; 10.5 µM with SK-MEL-5 melanoma; 16.7 µM in the experiment on DU-145 prostate; 11.5 µM with IGROV1 ovarian; 20.2 µM with A498 renal. The TGI is 3.18 µM in the experiment with RXF 393 renal, 1.5 µM in the experiment on SN12C renal, 14.2 µM with HT29 colon and 3.29 µM with SK-MEL-2 melanoma.

`c1ccc(C2=NNC3c4ccccc4-c4ccccc4N3C2)cc1` (stereo not given): the TGI in the experiment with U251 CNS is above 100 µM; in the experiment on SNB-19 CNS it was above 100 µM; with SK-MEL-5 melanoma, 29.4 µM; in the experiment on DU-145 prostate, above 100 µM; with IGROV1 ovarian it was above 100 µM; with A498 renal, 98.5 µM. Besides, the TGI was above 100 µM in the experiment on RXF 393 renal, above 100 µM in the experiment with SN12C renal, above 100 µM in the experiment with HT29 colon and 45.8 µM with SK-MEL-2 melanoma.
